Publication PMC6770510, “In Vitro Production and Identification of Angiotensin Converting Enzyme (ACE) Inhibitory Peptides Derived from Distilled Spent Grain Prolamin Isolate” (Foods, 2019)
Residues, ends and D or L forms follow the SMILES beside them.

target: T1, angiotensin converting enzyme (ACE) (Homo sapiens, UniProt P12821); assay: ACE inhibitory activity, colorimetric detection system (ACE kit-WST); assay type: biochemical; conditions: synthetic peptides; mean ± SD, n = 3; read-out: IC50 (μM) for ACE of corresponding synthetic peptides
T1 construct: purchased Dojindo Inc., Kumamoto, Japan ACE kit-WST
T1 sequence (P12821 30-1306, species assumed): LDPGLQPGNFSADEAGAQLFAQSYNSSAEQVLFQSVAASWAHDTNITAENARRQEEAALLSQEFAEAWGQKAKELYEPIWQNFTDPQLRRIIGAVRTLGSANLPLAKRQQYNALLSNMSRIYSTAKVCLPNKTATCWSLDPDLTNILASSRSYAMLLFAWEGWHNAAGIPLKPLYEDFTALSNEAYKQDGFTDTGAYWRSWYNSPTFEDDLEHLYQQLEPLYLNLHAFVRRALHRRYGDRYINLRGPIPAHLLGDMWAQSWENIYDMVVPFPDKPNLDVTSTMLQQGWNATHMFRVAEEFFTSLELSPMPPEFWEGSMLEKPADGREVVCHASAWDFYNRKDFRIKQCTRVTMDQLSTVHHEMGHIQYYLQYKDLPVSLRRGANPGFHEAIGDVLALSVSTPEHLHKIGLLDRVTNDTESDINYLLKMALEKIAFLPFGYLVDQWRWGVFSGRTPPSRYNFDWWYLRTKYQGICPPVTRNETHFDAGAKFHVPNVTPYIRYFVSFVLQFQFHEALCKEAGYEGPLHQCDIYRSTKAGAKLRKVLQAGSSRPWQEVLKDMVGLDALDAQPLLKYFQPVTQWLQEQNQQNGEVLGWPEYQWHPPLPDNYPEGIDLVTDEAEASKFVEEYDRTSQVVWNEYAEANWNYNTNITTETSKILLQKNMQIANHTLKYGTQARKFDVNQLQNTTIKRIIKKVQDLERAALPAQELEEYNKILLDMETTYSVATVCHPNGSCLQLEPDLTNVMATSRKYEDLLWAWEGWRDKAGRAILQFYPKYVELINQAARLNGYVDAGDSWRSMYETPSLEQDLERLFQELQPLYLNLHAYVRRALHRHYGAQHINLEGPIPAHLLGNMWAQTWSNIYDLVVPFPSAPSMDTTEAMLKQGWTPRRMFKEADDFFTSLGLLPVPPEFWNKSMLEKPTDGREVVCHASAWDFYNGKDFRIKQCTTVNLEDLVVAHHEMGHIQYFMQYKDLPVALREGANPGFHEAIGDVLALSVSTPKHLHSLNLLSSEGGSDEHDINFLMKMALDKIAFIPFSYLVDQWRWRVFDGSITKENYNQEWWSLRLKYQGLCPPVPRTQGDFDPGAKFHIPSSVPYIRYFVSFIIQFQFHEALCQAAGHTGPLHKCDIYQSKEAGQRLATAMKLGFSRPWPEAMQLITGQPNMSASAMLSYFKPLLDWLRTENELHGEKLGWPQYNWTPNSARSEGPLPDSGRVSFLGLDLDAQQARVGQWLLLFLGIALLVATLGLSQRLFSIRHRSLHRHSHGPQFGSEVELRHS
Method: The ACE inhibitory activity was determined following the method as previously described, using the colorimetric detection system (ACE kit-WST, Dojindo Inc., Kumamoto, Japan). The assay procedure was consistent with the technical manual provided by the assay kit. Briefly, 20 µL of sample solution was added to a sample well, and 20 µL of deionized water was added to blank 1 and blank 2 wells. 20 µL of substrate buffer was added to each well. 20 µL of deionized water was added to blank 2 well, while 20 µL of enzyme working solution was added to each sample and blank 1 wells. All wells containing above solutions were incubated at 37 °C for 1 h. Afterwards, 200 µL of the indicator working solution was added to each well with further incubation for 10 min. Then, the absorbance was recorded at 450 nm using a microplate reader (Cytation 3, BioTek Instruments, Inc., Winooski, VT, USA). The ACE inhibitory activity was calculated using the equation (1) ACE inhibitory activity (inhibition rate %) = Ablank1− Asample/Ablank1− Ablank2 × 100% where Ablank1 represented positive control (without ACE inhibition); Ablank2 was the absorbance of the reagent blank, while Asample was the absorbance of the sample. The concentration inducing 50% inhibition (IC50) of peptides and some samples were also determined with non-linear regression.

SMILES | IC50 [µM]
CC(C)[C@H](NC(=O)[C@H](C)N)C(=O)N[C@@H](CCC(N)=O)C(=O)O [AVQ] (H-Ala-Val-Gln-OH) | 181 ± 6.17
CC(C)C[C@H](NC(=O)[C@H](CCC(N)=O)NC(=O)[C@@H](N)CC(N)=O)C(=O)O [NQL] (H-Asn-Gln-Leu-OH) | 705 ± 16.1
NC(=O)CC[C@H](NC(=O)[C@@H]1CCCN1C(=O)[C@@H](N)Cc1ccc(O)cc1)C(=O)O [YPQ] (H-Tyr-Pro-Gln-OH) | 220 ± 9.56

Continued, values first:

IC50 [µM] | SMILES
229 ± 9.63 | CC(C)C[C@H](NC(=O)[C@H](Cc1ccc(O)cc1)NC(=O)[C@H](C)N)C(=O)N[C@@H](CCC(N)=O)C(=O)O [AYLQ] (H-AYLQ-OH)
1246 ± 9.92 | CC(C)C[C@H](NC(=O)[C@H](CO)NC(=O)[C@@H]1CCCN1C(=O)[C@H](CC(C)C)NC(=O)[C@@H](N)C(C)C)C(=O)N[C@@H](CC(N)=O)C(=O)O [VLPSLN] (H-VLPSLN-OH)
248 ± 7.15 | CC(C)C[C@H](NC(=O)[C@@H](NC(=O)[C@@H]1CCCN1C(=O)[C@H](CC(C)C)NC(=O)[C@@H](N)C(C)C)C(C)C)C(=O)N[C@@H](CO)C(=O)O [VLPVLS] (H-VLPVLS-OH)
